The text below walks through data of PubChem BioAssay (NCI).

What all share (assay): NCI anticancer screen, dose series, 48 h
For test [1], the system named is IGROV1 ovarian.
Test [2] relates to MOLT-4 leukemia.
Test [3] concerns DLD-1 colon.
Test [4] has as its system DMS 114 small cell lung.
The subject of test [5] is DMS 273 small cell lung.
In test [6] the test system is HOP-18 NSCLC.
Test [7] relates to KM20L2 colon.
In test [8] the test system is XF 498 CNS.
In test [9] the test system is LXFL 529 NSCLC.
For test [10], the system named is M19-MEL melanoma.
Test [11] relates to SNB-78 CNS.

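Five compound concentrations were applied to cells in 96-well plates for 48 hours; endpoints were derived by simple linear interpolation of the resulting dose-response curve. At the GI50, growth is halved. TGI is the concentration that stops growth completely.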

On to `NC(=O)c1nnc2cc(F)ccc2c1N`, for which the TGI in test [1] and in test [2] was above 100 µM each time.
Take `O=[N+]([O-])/C(C(Cl)=C(Cl)Cl)=C1\NCCO1`: the TGI in test [1] and in [2] was above 100 µM throughout.
`CNc1ccc(-c2nc3cc(C)ccc3o2)cc1`: the TGI in test [1] and in [2] was above 100 µM throughout.
Consider `CCC1C(c2cccc(OC)c2O)c2cc3c(cc2OC1N1CCCC1)OCO3` (stereo unspecified), for which the results for the TGI in test [1] and in test [2] were 45.3 µM and 45 µM, respectively.
In the case of `CC1(C)N=C(C(N)=O)c2ncn(CCO)c2N1`, in test [1], the TGI is above 100 µM.
Take `COc1ccc(S(=O)(=O)O)cc1-n1nc(C(=O)Nc2ccccc2)n[n+]1-c1cc(S(=O)(=O)[O-])ccc1OC`: the TGI in test [1] and in test [2] was above 100 µM in each case.
In the case of `Clc1nc(Cl)c(Cl)c(Cl)n1`, the TGI came to 38.7 µM in test [1] and 15.5 µM in test [2].
Turning to `O=C1C(F)=CC(COC(c2ccccc2)(c2ccccc2)c2ccccc2)OC1n1cc(F)c(=O)[nH]c1=O` (stereo unspecified), the TGI in [1] was determined as 6.79 µM; in test [2], 4.81 µM.
Consider `CCCCc1c(C(=O)OC(C)(C)C)cc(C#Cc2cc(C(=O)OC(C)(C)C)c(CCCC)c(C(=O)OC(C)(C)C)c2)cc1C(=O)OC(C)(C)C`, for which the TGI in test [1] is above 100 µM.
In test [2], `O=C1CSc2nc3ccccc3n2/C=N\N1` displayed a TGI above 100 µM.
As to `COC(=O)C(C)(N=Cc1ccccc1)c1ccccc1` (stereo unspecified), the TGI in test [1] and in test [2] was above 100 µM in each case.
The compound `CN(C)c1nc(NC23CC4CC(CC(C4)C2)C3)nc(N(C)C)n1` registered a TGI in test [2] above 57.3 µM.
As for `CCOC(=O)N1CCN(c2ccc3c(C)cc(C)nc3n2)CC1`, the TGI in test [1] and in [2] was above 100 µM throughout.
Regarding `O=C(CC/C=C(/CS(=O)(=O)c1ccccc1)S(=O)(=O)c1ccccc1)c1ccccc1`, the TGI in test [3] is above 100 µM; in test [4] it was 83.4 µM; in [5], above 100 µM; in test [6], above 100 µM; in test [1] it was above 100 µM; in test [7], above 100 µM. Also, the TGI in [2] and in [8] was above 100 µM each time.
In turn, `CC(C)SC(C)(NC(=O)C1C(C)(C)CCC1(C)C)C(=O)O` (stereo unspecified) returned a TGI in test [2] above 100 µM.
Consider `COC(=O)C1=C(C)NC2(O)C=CC(=O)C3C(=O)N(c4ccccc4)C(=O)C132` (stereo unspecified), for which the TGI in test [1] and in test [2] was above 100 µM throughout.
Consider `O=c1[nH]nc(-c2ccccc2)n1/N=C/c1ccncc1`, for which the TGI in [1] and in test [2] was above 100 µM throughout.
With `O=C1CC(=O)c2c(O)cc(O)c(c2O)-c2c(ccc(O)c2O)C2=CC(=O)c3c(O)cc(O)c(c3O2)-c2c1ccc(O)c2O` (tested in a mixture with another compound), the TGI in [1] and in test [2] was above 50 µM each time.
As for `O=C(NCCC(F)(F)C(F)(F)C(F)(F)C(F)(F)F)NC1OC(CO)C(O)C(O)C1O` (stereo unspecified), the TGI in [1] and in test [2] was above 100 µM throughout.
Turning to `CCOC(=O)/C(=C\c1ccc(N(C)C)cc1)S(=O)(=O)C(F)(F)C(F)(F)C(F)(F)C(F)(F)F`, the TGI in test [1] and in test [2] was above 100 µM in each case.
On to `O=C(/C=C/c1cccc(Br)c1)c1cccs1`, for which the TGI is 36.6 µM in test [1] and 53.2 µM in [2].
The like results for `CC(C)C(C/C=C1\CC(CO)(COC(=O)c2ccccc2)OC1=O)C(C)C` (stereo unspecified) were, in that order, 37.2 µM and 42.6 µM.
In turn, `COc1cc2c(c(OC)c1OC)-c1ccc(SC)c(=O)cc1[C@@H](OC(C)=O)CC2` yielded a TGI in test [2] above 100 µM.
As for `O=C1O/C(=C(\Br)c2cccc3ccccc23)c2ccccc21`, the TGI was above 66.7 µM in test [3]; above 48.4 µM in test [4]; above 54.9 µM in [5]; 36.4 µM in [6]; above 57.9 µM in [1]; above 59.5 µM in [7]. For the same compound, the TGI was above 62.7 µM in test [9], above 58.5 µM in test [10], 46.7 µM in [2] and above 100 µM in test [11].
`COC(=O)/C=C(\C)C(=O)N(C)c1ccccc1I` came in with a TGI in [2] above 100 µM.
`FC(F)(F)c1ccccc1N1CCN(c2nc(-c3cccs3)nc3ccc(Br)cc23)CC1`: the TGI in [1] and in test [2] was above 100 µM each time.
For `N#Cc1c(SCc2ccccc2)nc(-c2ccccc2)[nH]c1=S`, the TGI in [1] was 79.4 µM; in test [2] it was 85.2 µM.
For the compound `Clc1ccc(Cc2nc3ccc(CCN4CCN(c5ccccc5)CC4)cc3[nH]2)cc1`, the TGI in [1] is 90.6 µM; in [2] it was 40.6 µM.
The corresponding values for `COc1ccccc1C1SCC(=O)N1c1ccc(-c2ccc(-n3c(-c4ccccc4)nc4ccccc4c3=O)cc2)cc1` (stereo unspecified) are above 100 µM and above 100 µM.
In the case of `CC(=O)[C@@H]1CCC=C2CC[C@]3(C)[C@@H](CC[C@@H]4[C@@]5(C)CCCNC(C)(C)[C@@H]5CC[C@]43C)[C@H]21`, in test [1], the GI50 was 1.69 µM and the TGI was determined as 3.28 µM.
As for `CC12CCC(C(=O)O1)C(C)(C)O2` (stereo unspecified), the TGI in test [1] and in test [2] was above 100 µM in each case.
Consider `[Se]=P(c1ccccc1)(c1ccccc1)c1ccc(C(c2ccccc2)=P(c2ccccc2)(c2ccccc2)c2ccccc2)cc1`, for which the TGI in test [1] amounted to 11.5 µM; in test [2] it was 12.6 µM.
The like results for `ClC(Cl)(Cl)C1=N[C@H]2[C@H](Br)[C@@H]3O[C@@H](c4ccccc4)[C@H](c4ccccc4)O[C@@H]3[C@H]2O1` were, in that order, 30.9 µM and 45.7 µM.
Take `C=C1C(=O)OC2(C)C3CCC(C3)C12` (stereo unspecified): the TGI in [3], in test [4], in test [5], in [6], in [1] and in test [7] was above 100 µM each time. For the same compound, the TGI is above 100 µM in [10], above 100 µM in test [2], above 100 µM in [11] and 97.9 µM in test [8].
Turning to `O=C(CN1CCN(Cc2ccccc2)CC1)N1CCCn2c1nc1ccccc1c2=O`, the TGI in test [1] and in test [2] was above 100 µM in each case.
In the case of `CC(=O)NCCC1CN(C(=O)/C=C\C#C[Si](C)(C)C)c2ccccc21` (stereo unspecified), the values for the TGI in test [1] and in [2] were 30.8 µM and above 100 µM, respectively.
The like results for `O=C(Nc1cccc(C(F)(F)F)c1)O/N=C(/Cl)CCl` were, in that order, above 100 µM and 79.6 µM.
On to `Cc1ccnc2[nH]c(-c3cccc(Cl)c3)cc(=O)c12`, for which the TGI in test [1] is above 100 µM; in test [2], above 50 µM.
As to `C/C(=N/NC(=S)Nc1ccccc1Cl)c1cccc(/C(C)=N\NC(=S)Nc2ccccc2Cl)n1`, the TGI in test [1] and in test [2] was above 100 µM each time.
As to `CC(C(=O)ON1C(=O)CCC1=O)c1ccc(C(=O)c2ccccc2)s1` (stereo unspecified), the TGI in test [1] and in test [2] was above 100 µM in each case.
With `NCCCn1c2ccccc2c2c3c(c4c(c21)CCC(O)CC4)C(=O)NC3=O` (stereo unspecified), the TGI in [1] was 21.5 µM; in test [2], 11.2 µM.
`CC(C)CCC[C@@H](C)[C@H]1CCC2C3CC=C4C[C@@H](Oc5c6ccccc6nc6ccccc56)CCC4C3CCC21` (stereo partly specified) yielded a TGI in test [1] above 50 µM.
In test [2], `COC(=O)c1cc(NC(=O)c2cc(NC(=O)c3cc([N+](=O)[O-])cn3C)cn2C)cn1C` had a TGI above 100 µM.
For `C=CCOCn1cnc2c(N)ncnc21`, the TGI in test [1] and in test [2] was above 100 µM in each case.
For `CN(C)c1ccc(/C=C2\N=C(NN)NC2=O)cc1`, the TGI in test [1] and in test [2] was above 100 µM in each case.
For the compound `Cc1cc(-c2[nH]c(C(=O)O)cc2I)on1`, the TGI in test [1] and in test [2] was above 100 µM throughout.
With `O=c1/c(=C\c2ccccc2)sc2n1C(c1ccccc1)C1(O)CCCCC1N=2` (stereo unspecified), the TGI in [1] and in test [2] was above 100 µM throughout.
For `CN(C(=O)Cc1ccc(Cl)c(Cl)c1)[C@H]1CCCC[C@@H]1[N+]1(C)CCCC1`, the TGI in test [1] and in [2] was above 100 µM each time.
The compound `CCOC(=O)Oc1cc2c(c(OC)c1OC)-c1ccc(SC)c(=O)cc1C(NC(=O)C(F)(F)F)CC2` (stereo unspecified) displayed a TGI in [1] of 0.149 µM.
With `CCCCCC(=O)N[C@@H](c1ccccc1)C(O)C(=O)OC1C[C@@]2(O)C(OC(=O)c3ccccc3)C3[C@](C)(C(=O)[C@H](O)C(=C1C)C2(C)C)C(OC1OCC(O)C(O)C1O)C[C@H]1OC[C@@]31OC(C)=O` (stereo partly specified), the TGI in test [1] and in test [2] was above 100 µM throughout.
`C=CC1ON(Cc2ccccc2)CCc2cc(OC)c(OC)cc21` (stereo unspecified): the TGI in test [1] and in [2] was above 100 µM throughout.
Take `COc1ccc(N2C(=Nc3ccccc3)SC(=N/S(=O)(=O)c3ccccc3)/C2=N\S(=O)(=O)c2ccccc2)cc1`: the TGI is 27.3 µM in test [1] and 45.6 µM in test [2].
The like results for `Cc1ccc(N=Nc2c(O)ccc3cc(S(=O)(=O)O)ccc23)c(C)c1` were, in that order, above 100 µM and above 100 µM.
Consider `CCOC(=O)c1c(Br)c(-c2ccc(Br)cc2)c(Br)n1C`, for which the values for the TGI in test [1] and in [2] were above 100 µM and 37.6 µM, respectively.
The like results for `COC(=O)c1ccccc1C#CC#Cc1ccccc1C(=O)OC` were, in that order, above 10 µM and above 10 µM.
For `CN1C(=S)C(c2ccccc2)Sc2ccccc21` (stereo unspecified), the TGI in test [1] and in test [2] was above 100 µM in each case.
On to `CCOC(=O)c1cc(C(=O)c2ccccc2)n2nc(-c3ccc(Cl)cc3)ccc12`, for which the TGI in test [1] was 38.8 µM; in [2], above 100 µM.
The corresponding values for `O=C1/C(=C\c2cccc(Oc3ccccc3)c2)S(=O)(=O)C(c2ccccc2)N1c1ccccc1Cl` (stereo unspecified) are above 100 µM and 48.9 µM.
Consider `COc1cc(OC)c2c(O)c3c(cc2c1)CC(C)(C)CC3=O`, for which the TGI in [1] and in [2] was above 100 µM in each case.
On to `O=C1Sc2ccc(Br)cc2C(=O)Sc2ccccc21`, for which the TGI was determined as 31.6 µM in test [1] and 19.9 µM in [2].
The corresponding values for `Cc1sc2nc(-c3cc([N+](=O)[O-])c(Cl)cc3Cl)c(/C=N/N=C(N)N)n2c1C` are 9.12 µM and 4.64 µM.
The like results for `O=C1C(NCCc2ccc(O)c(O)c2)=CC(=O)c2ncccc21` were, in that order, 27.2 µM and 34.6 µM.
The like results for `Cn1c(C(C#N)c2nc(Cl)ncc2Br)nc2ccccc21` (stereo unspecified) were, in that order, above 100 µM and above 100 µM.
For the compound `O=C(/C=C/c1ccsc1)c1ccco1`, the results for the TGI in [1] and in [2] were 22.8 µM and 36 µM, respectively.
The like results for `COc1cccc(-c2ccc3c4c2O[C@H]2c5[nH]c6ccccc6c5C[C@@]5(O)[C@@H](C3)N(CC3CC3)CC[C@]425)c1` were, in that order, 3.04 µM and 9.34 µM.
For the compound `c1ccc(C2=Nc3nc4ccccc4n3C(c3ccccc3)C2)cc1` (stereo unspecified), the TGI in test [1] and in test [2] was above 100 µM throughout.
On to `Clc1cc2c(c(CSC3=NCN(CC4CC4)CN3)c1)OCOC2`, for which the TGI in test [1] was above 100 µM; in test [2] it was 64 µM.
Turning to `O=C(Nc1nc2c(=O)[nH]cnc2s1)c1ccccc1`, in [1], the TGI was above 100 µM.
`CCOc1cc(NC(C)=O)ccc1C(=O)NN1C(=O)C(Oc2ccccc2)C1c1ccccc1` (stereo unspecified): the values for the TGI in test [1] and in test [2] were above 100 µM and 20.4 µM, respectively.
Turning to `O=c1[nH]nc(-c2ccccc2)n1/N=C/c1c[nH]c2ccccc12`, the TGI in test [1] and in test [2] was above 100 µM each time.
